Target: T1, eIF4A1 (Homo sapiens, UniProt P60842)
T1 construct: recombinant eIF4A1 from pET19bm, 10-histidine tract at the N-terminal with Prescission Protease site, expressed in E. coli Rosetta Star
Assay: fluorescence quenching of purified recombinant eIF4A ([…] auraptene)
Assay type: binding

T1 sequence (P60842 2-406): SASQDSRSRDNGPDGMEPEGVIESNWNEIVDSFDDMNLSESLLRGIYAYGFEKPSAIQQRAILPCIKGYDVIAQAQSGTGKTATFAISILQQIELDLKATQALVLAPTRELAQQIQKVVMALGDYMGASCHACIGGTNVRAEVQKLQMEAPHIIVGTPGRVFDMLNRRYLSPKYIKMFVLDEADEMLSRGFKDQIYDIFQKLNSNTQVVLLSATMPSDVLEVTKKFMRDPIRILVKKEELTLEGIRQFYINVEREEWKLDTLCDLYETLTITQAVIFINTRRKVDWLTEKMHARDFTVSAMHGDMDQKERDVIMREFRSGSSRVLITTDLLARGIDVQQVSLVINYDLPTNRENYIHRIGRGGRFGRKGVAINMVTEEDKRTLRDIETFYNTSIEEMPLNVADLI

## CC(C)=CCC/C(C)=C/COc1ccc2ccc(=O)oc2c1 [Aur, auraptene]
  fluorescence quenching of purified recombinant eIF4A (50 and 100 μM auraptene): a reduction in the emission intensity was observed, resulting from a quenching phenomenon, suggesting that auraptene binds with the eIF4A

— PMC11435248, “Auraptene Boosts the Efficacy of the Tamoxifen Metabolites Endoxifen and 4-OH-Tamoxifen in a Chemoresistant ER+ Breast Cancer Model” (Pharmaceutics, 2024)
